Measurements published in ChEMBL document CHEMBL5543075, “Phenoxytacrine derivatives: Low-toxicity neuroprotectants exerting affinity to ifenprodil-binding site and cholinesterase inhibition” (Eur J Med Chem, 2024).
Activity calls are given as the source filed them. No cut-off for these calls is given here.

How the values were obtained:
[1] = Cytotoxicity against CHO-K1 cells incubated for 24 hrs by MTT assay; type: toxicity, cell-based, Cricetulus griseus; details: Chinese hamster
Acetylcholinesterase = Acetylcholinesterase (Homo sapiens, UniProt P22303); test: Inhibition of human AChE by spectrophotometric Ellman's method
Cholinesterase = Cholinesterase (Homo sapiens, UniProt P06276); test: Inhibition of human BChE by spectrophotometric Ellman's method
[2] = target: T1, Glutamate NMDA receptor; GRIN1/GRIN2B (Homo sapiens, UniProt Q05586+Q13224); test: Inhibition of recombinant human GluN1/GluN2B receptor expressed in HEK293 cells assessed as reduction in glutamate induced current at 1 uM at -60 mV holding potential by electrophysiology assay relative to control; type: cell-based
[3] = target: Glutamate NMDA receptor; GRIN1/GRIN2A (Homo sapiens, UniProt Q05586+Q12879); test: Inhibition of recombinant wild type human GluN1/GluN2A receptor expressed in HEK293 cells assessed as reduction in glutamate induced current at -60 mV holding potential by electrophysiology assay; type: cell-based
[4] = target: T1, Glutamate NMDA receptor; GRIN1/GRIN2B; test: Inhibition of recombinant wild type human GluN1/GluN2B receptor expressed in HEK293 cells assessed as reduction in glutamate induced current at -60 mV holding potential by electrophysiology assay; type: cell-based
[5] = Inhibition of recombinant human GluN1 deltaATD/GluN2B receptor expressed in HEK293 cells assessed as reduction in glutamate induced current at -60 mV holding potential by electrophysiology assay; type: cell-based
[6] = Toxicity in Wistar rat assessed as no observed adverse effect level (NOAEL) at 10 mg/kg, ip; type: organism-based; details: in vivo
[7] = Toxicity in Wistar rat assessed as no observed adverse effect level (NOAEL) at 20 mg/kg, ip measured after 10 to 15 mins; type: organism-based; details: in vivo, time 10-15 min
Rattus norvegicus [8] = test: Antipsychotic activity in Wistar rat assessed as effect on locomotor activity at 2 mg/kg, ip measured after 10 mins by open field test; type: functional, organism-based
Rattus norvegicus [9] = test: Antipsychotic activity in Wistar rat assessed as effect on pre-pulse inhibition of acoustic startle response at 2 mg/kg, ip measured after 10 mins by pre-pulse inhibition test; type: functional, organism-based
Rattus norvegicus [10] = test: Antialzheimer activity against scopolamine-induced cognitive impairment in Wistar rat assessed as decrease in latency to reach platform at 2 mg/kg, ip measured upto 4 days by morris water maze test; type: functional, organism-based; details: time <= 4.0 day
Hippocampal neurone = test: Neuroprotective activity against NMDA-induced cell injury in rat Hippocampal neuron cells assessed as decrease in damage score at 30 uM measured after 24 hrs by FJB staining based microscopy; type: functional
in vitro [11] = details: human, liver microsomes
Description: Metabolic stability in human liver microsomes assessed as half life at 3 uM measured upto 45 min in presence of NADPH regenerating system by LC-MS analysis

in vitro [12] = details: human, liver microsomes; remark: listed apart in the source
Description: Metabolic stability in human liver microsomes assessed as intrinsic clearance at 3 uM measured upto 45 min in presence of NADPH regenerating system by LC-MS analysis

Sequence of Acetylcholinesterase (P22303 whole entry): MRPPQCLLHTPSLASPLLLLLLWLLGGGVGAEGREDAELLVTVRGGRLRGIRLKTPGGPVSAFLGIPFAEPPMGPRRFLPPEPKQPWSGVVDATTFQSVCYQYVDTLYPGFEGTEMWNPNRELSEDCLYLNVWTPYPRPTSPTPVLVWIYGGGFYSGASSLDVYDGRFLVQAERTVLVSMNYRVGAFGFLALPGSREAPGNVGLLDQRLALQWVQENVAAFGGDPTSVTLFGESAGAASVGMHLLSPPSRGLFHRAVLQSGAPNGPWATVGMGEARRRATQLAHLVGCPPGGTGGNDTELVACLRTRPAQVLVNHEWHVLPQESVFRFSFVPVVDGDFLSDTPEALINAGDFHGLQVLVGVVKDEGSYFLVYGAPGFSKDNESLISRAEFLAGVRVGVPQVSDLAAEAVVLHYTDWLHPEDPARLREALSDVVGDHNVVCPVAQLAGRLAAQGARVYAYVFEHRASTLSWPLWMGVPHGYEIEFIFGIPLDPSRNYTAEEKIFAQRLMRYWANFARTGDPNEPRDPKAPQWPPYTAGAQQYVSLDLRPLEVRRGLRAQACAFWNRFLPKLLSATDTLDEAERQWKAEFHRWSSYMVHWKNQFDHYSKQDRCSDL
Sequence of Cholinesterase (P06276 whole entry): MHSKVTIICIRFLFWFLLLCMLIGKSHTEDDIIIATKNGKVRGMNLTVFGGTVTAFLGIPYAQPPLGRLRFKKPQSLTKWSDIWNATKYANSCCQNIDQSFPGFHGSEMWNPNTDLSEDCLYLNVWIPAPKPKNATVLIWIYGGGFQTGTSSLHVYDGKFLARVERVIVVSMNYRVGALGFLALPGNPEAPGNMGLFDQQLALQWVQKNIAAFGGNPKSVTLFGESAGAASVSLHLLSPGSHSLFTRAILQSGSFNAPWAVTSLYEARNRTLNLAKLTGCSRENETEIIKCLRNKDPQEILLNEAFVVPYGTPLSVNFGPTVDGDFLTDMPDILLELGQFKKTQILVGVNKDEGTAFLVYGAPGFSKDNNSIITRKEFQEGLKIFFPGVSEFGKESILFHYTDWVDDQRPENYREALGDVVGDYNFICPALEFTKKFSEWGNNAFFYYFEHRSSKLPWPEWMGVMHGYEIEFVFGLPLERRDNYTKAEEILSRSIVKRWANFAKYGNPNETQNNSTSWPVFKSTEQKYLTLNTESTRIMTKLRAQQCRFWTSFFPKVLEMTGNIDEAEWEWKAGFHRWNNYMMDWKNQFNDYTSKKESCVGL
Sequence of Glutamate NMDA receptor; GRIN1/GRIN2A (Q12879 whole entry, other chains not shown): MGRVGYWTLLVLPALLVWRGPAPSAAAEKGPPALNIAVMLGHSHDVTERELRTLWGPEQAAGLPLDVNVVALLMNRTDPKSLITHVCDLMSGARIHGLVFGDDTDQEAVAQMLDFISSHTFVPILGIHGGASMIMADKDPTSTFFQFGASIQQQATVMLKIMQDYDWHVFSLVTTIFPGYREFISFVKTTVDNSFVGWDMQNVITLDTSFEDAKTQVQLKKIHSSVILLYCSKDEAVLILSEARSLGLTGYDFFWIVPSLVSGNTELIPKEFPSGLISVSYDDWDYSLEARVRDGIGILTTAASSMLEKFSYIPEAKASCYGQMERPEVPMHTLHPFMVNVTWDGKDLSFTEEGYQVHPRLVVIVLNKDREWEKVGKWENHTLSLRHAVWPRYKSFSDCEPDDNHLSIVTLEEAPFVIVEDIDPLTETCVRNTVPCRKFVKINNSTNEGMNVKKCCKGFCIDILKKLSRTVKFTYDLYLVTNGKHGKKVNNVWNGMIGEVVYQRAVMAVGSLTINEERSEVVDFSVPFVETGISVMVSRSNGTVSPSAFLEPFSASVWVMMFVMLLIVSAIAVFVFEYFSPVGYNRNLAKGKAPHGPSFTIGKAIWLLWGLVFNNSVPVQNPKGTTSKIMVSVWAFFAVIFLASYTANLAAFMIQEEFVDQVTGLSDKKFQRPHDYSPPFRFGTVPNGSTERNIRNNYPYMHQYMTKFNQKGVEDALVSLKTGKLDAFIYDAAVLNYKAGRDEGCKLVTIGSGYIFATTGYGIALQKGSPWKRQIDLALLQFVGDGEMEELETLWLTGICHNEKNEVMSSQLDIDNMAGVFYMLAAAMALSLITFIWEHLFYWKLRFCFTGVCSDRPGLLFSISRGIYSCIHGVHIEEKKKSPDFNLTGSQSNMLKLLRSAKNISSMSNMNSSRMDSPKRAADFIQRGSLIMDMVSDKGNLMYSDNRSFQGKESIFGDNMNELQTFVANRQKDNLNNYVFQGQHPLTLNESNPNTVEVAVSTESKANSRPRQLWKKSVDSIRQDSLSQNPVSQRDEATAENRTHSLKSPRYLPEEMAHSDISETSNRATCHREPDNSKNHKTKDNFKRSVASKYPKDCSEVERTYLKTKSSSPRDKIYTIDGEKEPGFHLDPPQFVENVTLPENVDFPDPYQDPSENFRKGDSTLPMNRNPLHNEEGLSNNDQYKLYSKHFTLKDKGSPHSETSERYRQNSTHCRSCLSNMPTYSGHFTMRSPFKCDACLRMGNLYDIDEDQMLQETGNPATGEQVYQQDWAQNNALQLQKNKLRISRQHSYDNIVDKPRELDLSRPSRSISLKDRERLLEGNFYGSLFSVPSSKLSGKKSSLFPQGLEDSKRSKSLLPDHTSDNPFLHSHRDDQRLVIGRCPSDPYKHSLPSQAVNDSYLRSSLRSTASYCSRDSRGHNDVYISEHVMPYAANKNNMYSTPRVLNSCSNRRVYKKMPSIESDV

CC(C)(C)c1ccc(Oc2ccc3nc4c(c(N)c3c2)CCCC4)cc1
IC50 at 24 h [1]: 5.1 µM
IC50 (Acetylcholinesterase): 1.96 µM
IC50 (Cholinesterase): 6.61 µM
inhibition [2]: 16%

COc1ccc(Oc2ccc3nc4c(c(N)c3c2)CCCC4)cc1
IC50 at 24 h [1]: 26 µM
IC50 (Acetylcholinesterase): 2.9 µM
IC50 (Cholinesterase): 7.26 µM
inhibition [2]: 33.2%

CC(=O)c1ccc(Oc2ccc3nc4c(c(N)c3c2)CCC4)cc1
IC50 at 24 h [1]: 69 µM
IC50 (Acetylcholinesterase): 5.76 µM
IC50 (Cholinesterase): 16.5 µM
inhibition [2]: 9.5%

Nc1c2c(nc3ccc(Oc4ccccc4)cc13)CCC2
IC50 at 24 h [1]: 55 µM
IC50 (Acetylcholinesterase): 6.42 µM
IC50 (Cholinesterase): 2.93 µM
inhibition [2]: 30.3%

Cc1ccccc1Oc1ccc2nc3c(c(N)c2c1)CCCC3
IC50 at 24 h [1]: 25 µM
IC50 (Acetylcholinesterase): 3.78 µM
IC50 (Cholinesterase): 4.15 µM
inhibition [2]: 19.3%

CC(C)(C)c1ccc(Oc2ccc3nc4c(c(N)c3c2)CCC4)cc1
IC50 at 24 h [1]: 11 µM
IC50 (Acetylcholinesterase): 2.78 µM
IC50 (Cholinesterase): 3.11 µM
inhibition [2]: 6.7%

Nc1c2c(nc3ccc(Oc4ccc(Cl)cc4)cc13)CCCCC2
IC50 at 24 h [1]: 90 µM
IC50 (Acetylcholinesterase): 4.22 µM
IC50 (Cholinesterase): 1.85 µM
inhibition [2]: 12%

Cc1cc(C)cc(Oc2ccc3nc4c(c(N)c3c2)CCCC4)c1
IC50 at 24 h [1]: 13 µM
IC50 (Acetylcholinesterase): 1.62 µM
IC50 (Cholinesterase): 3.88 µM
inhibition [2]: 8.2%

Cc1cc(C)cc(Oc2ccc3nc4c(c(N)c3c2)CCC4)c1
IC50 at 24 h [1]: 39 µM
IC50 (Acetylcholinesterase): 3.72 µM
IC50 (Cholinesterase): 5.48 µM
inhibition [2]: 9.6%

Nc1c2c(nc3ccc(Oc4ccc(Cl)cc4)cc13)CCCC2
IC50 at 24 h [1]: 12 µM
IC50 (Acetylcholinesterase): 2.92 µM
IC50 (Cholinesterase): 3.32 µM
inhibition [2]: 14.2%

Nc1c2c(nc3ccc(Oc4ccc(Cl)cc4)cc13)CCC2
IC50 at 24 h [1]: 28 µM
IC50 (Acetylcholinesterase): 5.07 µM
IC50 (Cholinesterase): 3.6 µM
inhibition [2]: 8.7%

COc1ccccc1Oc1ccc2nc3c(c(N)c2c1)CCC3.Cl
IC50 at 24 h [1]: 68 µM
IC50 (Acetylcholinesterase): 8.52 µM
IC50 (Cholinesterase): 5.48 µM
inhibition [2]: 35%
IC50 [3]: 5.1 µM
IC50 [4]: 2.4 µM
IC50 [5]: 5.2 µM
Activity [6]: Non-Toxic
Activity [7]: Toxic
Activity (Rattus norvegicus [8]): inactive
Activity (Rattus norvegicus [9]): inactive
Activity (Rattus norvegicus [10]): Active
Activity (Hippocampal neurone): Active
half-life at 0.75 h, 3 µM (in vitro [11]): 1.16 h
microsomal CLint at 0.75 h, 3 µM (in vitro [12]): 20 µL/min/mg

COc1cccc(Oc2ccc3nc4c(c(N)c3c2)CCCC4)c1
IC50 at 24 h [1]: 27 µM
IC50 (Acetylcholinesterase): 2.64 µM
IC50 (Cholinesterase): 2.76 µM
inhibition [2]: 14.7%

COc1cccc(Oc2ccc3nc4c(c(N)c3c2)CCCCC4)c1
IC50 at 24 h [1]: 21 µM
IC50 (Acetylcholinesterase): 4.25 µM
IC50 (Cholinesterase): 2.62 µM
inhibition [2]: 7.1%

Cc1ccccc1Oc1ccc2nc3c(c(N)c2c1)CCCCC3
IC50 at 24 h [1]: 26 µM
IC50 (Acetylcholinesterase): 5.8 µM
IC50 (Cholinesterase): 4.17 µM
inhibition [2]: 8.8%
